# From patent publication US9902736B2, “1-oxo/acylation-14-acylated oridonin derivative, preparation method therefor and application thereof” (HANGZHOU BENSHENG PHARMACEUTICAL CO., LTD., priority 2012, dated 2018)
# Test system: RPMI 8226
# Assay: Multiple myeloma cell growth inhibition, MTT, 72 h
# Type: cell-based
# Conditions: Homo sapiens
# Description: Multiple myeloma cell lines: RPMI8226 (multiple myeloma), purchased from Fuxiang Bio-tech Co. Ltd., Shanghai, China.
# (§1) 6000 well-growing cells were obtained and inoculated into wells of a 96-well cell culture plate. […] On the next day, the 1-oxo/acylated-14-acylated oridonin derivatives of different concentrations were added and mixed uniformly. The plate was placed in a carbon dioxide cell incubator (5% CO2) at 37° C. and incubated for 72 hours. Then the viable cell concentration was determined by MTT method.
IC50 [µg/mL],IC90 [µg/mL],Compound
0.41,1.89,C=C1C(=O)[C@]23[C@H](OC(=O)c4ccccc4)[C@H]1CC[C@H]2[C@@]12CO[C@@]3(O)[C@@H](O)[C@@H]1C(C)(C)CCC2=O [BS-OR-001]

# Test system: Hep-2
# Assay: Solid tumor cell growth inhibition, MTT, 72 h
# Type: cell-based, human
# Conditions: Homo sapiens, HEp-2; 72 h, MTT
# Description: (§2) 6000 well-growing human solid tumor cells were obtained and inoculated into wells of a 96-well cell culture plate. The culture medium was DMEM High Glucose cell culture medium containing 10% fetal bovine serum. The plate was placed in a carbon dioxide cell incubator (5% CO2) at 37° C. and incubated for 24 hours. After added with 1-oxo/acylated-14-acylated oridonin derivatives of different concentration and mixed uniformly, the plate was placed in a carbon dioxide cell incubator (5% CO2) at 37° C. and incubated for 72 hours. Then the viable cell concentration was determined by MTT method.
IC50 [µg/mL],IC90 [µg/mL],Compound
1.64,7.7,C=C1C(=O)[C@]23[C@H](OC(=O)c4ccccc4)[C@H]1CC[C@H]2[C@@]12CO[C@@]3(O)[C@@H](O)[C@@H]1C(C)(C)CCC2=O [BS-OR-001]

# Test system: MGC-803
# Assay: Solid tumor cell growth inhibition, MTT, 72 h
# Type: cell-based, human
# Conditions: Homo sapiens, MGC-803; 72 h, MTT
# Description: as §2
IC50 [µg/mL],IC90 [µg/mL],Compound
0.88,11,C=C1C(=O)[C@]23[C@H](OC(=O)c4ccccc4)[C@H]1CC[C@H]2[C@@]12CO[C@@]3(O)[C@@H](O)[C@@H]1C(C)(C)CCC2=O [BS-OR-001]

# Test system: CNE
# Assay: Solid tumor cell growth inhibition, MTT, 72 h
# Type: cell-based, human
# Conditions: Homo sapiens, CNE; 72 h, MTT
# Description: as §2
IC50 [µg/mL],IC90 [µg/mL],Compound
1.41,5.45,C=C1C(=O)[C@]23[C@H](OC(=O)c4ccccc4)[C@H]1CC[C@H]2[C@@]12CO[C@@]3(O)[C@@H](O)[C@@H]1C(C)(C)CCC2=O [BS-OR-001]

# Test system: Hela
# Assay: Solid tumor cell growth inhibition, MTT, 72 h
# Type: cell-based, human
# Conditions: Homo sapiens, HeLa; 72 h, MTT
# Description: as §2
IC50 [µg/mL],IC90 [µg/mL],Compound
1.65,4.67,C=C1C(=O)[C@]23[C@H](OC(=O)c4ccccc4)[C@H]1CC[C@H]2[C@@]12CO[C@@]3(O)[C@@H](O)[C@@H]1C(C)(C)CCC2=O [BS-OR-001]

# Test system: SK-OV-3
# Assay: Solid tumor cell growth inhibition, MTT, 72 h
# Type: cell-based
# Conditions: Homo sapiens, SK-OV-3; 72 h, MTT; read-out: IC50 SK-OV-3
# Description: as §2
row,IC50 [µg/mL],Compound
1,1.67,C=C1C(=O)[C@]23[C@H](OC(=O)c4ccccc4)[C@H]1CC[C@H]2[C@@]12CO[C@@]3(O)[C@@H](O)[C@@H]1C(C)(C)CCC2=O [BS-OR-001]

# Same assay, conditions: Homo sapiens, SK-OV-3; 72 h, MTT; read-out: IC90 SK-OV-3
row,IC90 [µg/mL],Compound
1,3.8,C=C1C(=O)[C@]23[C@H](OC(=O)c4ccccc4)[C@H]1CC[C@H]2[C@@]12CO[C@@]3(O)[C@@H](O)[C@@H]1C(C)(C)CCC2=O [BS-OR-001]

# Test system: Hep G2
# Assay: Solid tumor cell growth inhibition, MTT, 72 h
# Type: cell-based
# Conditions: Homo sapiens, HepG2
# Description: as §2
IC50 [µg/mL],IC90 [µg/mL],Compound
0.98,10.6,C=C1C(=O)[C@]23[C@H](OC(=O)c4ccccc4)[C@H]1CC[C@H]2[C@@]12CO[C@@]3(O)[C@@H](O)[C@@H]1C(C)(C)CCC2=O [BS-OR-001]

# Test system: A549
# Assay: Solid tumor cell growth inhibition, MTT, 72 h
# Type: cell-based
# Conditions: Homo sapiens
# Description: as §2
IC50 [µg/mL],IC90 [µg/mL],Compound
2.6,6.08,C=C1C(=O)[C@]23[C@H](OC(=O)c4ccccc4)[C@H]1CC[C@H]2[C@@]12CO[C@@]3(O)[C@@H](O)[C@@H]1C(C)(C)CCC2=O [BS-OR-001]

# Test system: CaEs-17
# Assay: Solid tumor cell growth inhibition, MTT, 72 h
# Type: cell-based
# Conditions: Homo sapiens, CaEs17
# Description: as §2
IC50 [µg/mL],IC90 [µg/mL],Compound
1.21,5.47,C=C1C(=O)[C@]23[C@H](OC(=O)c4ccccc4)[C@H]1CC[C@H]2[C@@]12CO[C@@]3(O)[C@@H](O)[C@@H]1C(C)(C)CCC2=O [BS-OR-001]

# Test system: RKO
# Assay: Solid tumor cell growth inhibition, MTT, 72 h
# Type: cell-based
# Conditions: Homo sapiens
# Description: as §2
IC50 [µg/mL],IC90 [µg/mL],Compound
0.46,0.94,C=C1C(=O)[C@]23[C@H](OC(=O)c4ccccc4)[C@H]1CC[C@H]2[C@@]12CO[C@@]3(O)[C@@H](O)[C@@H]1C(C)(C)CCC2=O [BS-OR-001]

# Test system: Becap-37
# Assay: Solid tumor cell growth inhibition, MTT, 72 h
# Type: cell-based
# Conditions: Homo sapiens
# Description: as §2
IC50 [µg/mL],IC90 [µg/mL],Compound
1.12,3.79,C=C1C(=O)[C@]23[C@H](OC(=O)c4ccccc4)[C@H]1CC[C@H]2[C@@]12CO[C@@]3(O)[C@@H](O)[C@@H]1C(C)(C)CCC2=O [BS-OR-001]

# Test system: MG-63
# Assay: Solid tumor cell growth inhibition, MTT, 72 h
# Type: cell-based
# Conditions: Homo sapiens
# Description: as §2
IC50 [µg/mL],IC90 [µg/mL],Compound
0.47,0.99,C=C1C(=O)[C@]23[C@H](OC(=O)c4ccccc4)[C@H]1CC[C@H]2[C@@]12CO[C@@]3(O)[C@@H](O)[C@@H]1C(C)(C)CCC2=O [BS-OR-001]

# Test system: U87-MG
# Assay: Solid tumor cell growth inhibition, MTT, 72 h
# Type: cell-based
# Conditions: Homo sapiens, U-87 MG
# Description: as §2
IC50 [µg/mL],IC90 [µg/mL],Compound
0.8,2.36,C=C1C(=O)[C@]23[C@H](OC(=O)c4ccccc4)[C@H]1CC[C@H]2[C@@]12CO[C@@]3(O)[C@@H](O)[C@@H]1C(C)(C)CCC2=O [BS-OR-001]

# Test system: PC-3
# Assay: Solid tumor cell growth inhibition, MTT, 72 h
# Type: cell-based
# Conditions: Homo sapiens
# Description: as §2
IC50 [µg/mL],IC90 [µg/mL],Compound
1.67,3.8,C=C1C(=O)[C@]23[C@H](OC(=O)c4ccccc4)[C@H]1CC[C@H]2[C@@]12CO[C@@]3(O)[C@@H](O)[C@@H]1C(C)(C)CCC2=O [BS-OR-001]

# Test system: PANC-1
# Assay: Solid tumor cell growth inhibition, MTT, 72 h
# Type: cell-based
# Conditions: Homo sapiens
# Description: as §2
IC50 [µg/mL],IC90 [µg/mL],Compound
1.79,6.42,C=C1C(=O)[C@]23[C@H](OC(=O)c4ccccc4)[C@H]1CC[C@H]2[C@@]12CO[C@@]3(O)[C@@H](O)[C@@H]1C(C)(C)CCC2=O [BS-OR-001]

# Test system: NB4
# Assay: Leukemia cell growth inhibition, MTT, 72 h
# Type: cell-based, human
# Conditions: Homo sapiens, NB-4; 72 h, MTT
# Description: (§3) Leukemia cell lines: leukemia cell lines: K562/adr (drug-resistant, chronic myeloid leukemia, CML), NB4 (acute promyelocytic leukemia, AML), Kasumi-1 (acute myeloid leukemia M2 type, AML-M2), Jurkat (acute lymphoblastic leukemia, ALL), all of which were donated by Cancer Research Institute of Zhejiang University, China; and H9 (acute lymphoblastic leukemia, ALL), which was purchased from China Center for Type Culture Collection.
# as §1, with “6000 well-growing leukemia cells were” for “6000 well-growing cells were”, “C. and was incubated for” for “C. and incubated for”
IC50 [µg/mL],IC90 [µg/mL],Compound
0.14,0.47,C=C1C(=O)[C@]23[C@H](OC(=O)c4ccccc4)[C@H]1CC[C@H]2[C@@]12CO[C@@]3(O)[C@@H](O)[C@@H]1C(C)(C)CCC2=O [BS-OR-001]

# Test system: H9
# Assay: Leukemia cell growth inhibition, MTT, 72 h
# Type: cell-based, human
# Conditions: Homo sapiens, H9; 72 h, MTT
# Description: as §3
# as §1, with “6000 well-growing leukemia cells were” for “6000 well-growing cells were”, “C. and was incubated for” for “C. and incubated for”
IC50 [µg/mL],IC90 [µg/mL],Compound
0.45,0.95,C=C1C(=O)[C@]23[C@H](OC(=O)c4ccccc4)[C@H]1CC[C@H]2[C@@]12CO[C@@]3(O)[C@@H](O)[C@@H]1C(C)(C)CCC2=O [BS-OR-001]

# Test system: Jurkat
# Assay: Leukemia cell growth inhibition, MTT, 72 h
# Type: cell-based, human
# Conditions: Homo sapiens, Jurkat; 72 h, MTT
# Description: as §3
# as §1, with “6000 well-growing leukemia cells were” for “6000 well-growing cells were”, “C. and was incubated for” for “C. and incubated for”
IC50 [µg/mL],IC90 [µg/mL],Compound
0.68,2.63,C=C1C(=O)[C@]23[C@H](OC(=O)c4ccccc4)[C@H]1CC[C@H]2[C@@]12CO[C@@]3(O)[C@@H](O)[C@@H]1C(C)(C)CCC2=O [BS-OR-001]

# Test system: K562/ADR
# Assay: Leukemia cell growth inhibition, MTT, 72 h
# Type: cell-based
# Conditions: Homo sapiens
# Description: as §3
# as §1, with “6000 well-growing leukemia cells were” for “6000 well-growing cells were”, “C. and was incubated for” for “C. and incubated for”
IC50 [µg/mL],IC90 [µg/mL],Compound
0.6,1.73,C=C1C(=O)[C@]23[C@H](OC(=O)c4ccccc4)[C@H]1CC[C@H]2[C@@]12CO[C@@]3(O)[C@@H](O)[C@@H]1C(C)(C)CCC2=O [BS-OR-001]

# Test system: Kasumi-1
# Assay: Leukemia cell growth inhibition, MTT, 72 h
# Type: cell-based
# Conditions: Homo sapiens
# Description: as §3
# as §1, with “6000 well-growing leukemia cells were” for “6000 well-growing cells were”, “C. and was incubated for” for “C. and incubated for”
IC50 [µg/mL],IC90 [µg/mL],Compound
0.72,1.86,C=C1C(=O)[C@]23[C@H](OC(=O)c4ccccc4)[C@H]1CC[C@H]2[C@@]12CO[C@@]3(O)[C@@H](O)[C@@H]1C(C)(C)CCC2=O [BS-OR-001]
